According to US7625875B2 (priority 2002, dated 2009):
Where two headings read alike, the source gives them in different places.

Assays:
[1] = test system: DENV 2; assay: microbe, parasite or virus in culture; assay type: cell-based, dengue virus; conditions: Dengue virus, read-out: DENV 2
[2] = test system: Sb-1; assay: organism not typed; assay type: cell-based, Sabin type 1 poliomyelitis virus; conditions: read-out: Sb-1
[3] = test system: HCV genotype 1
[4] = test system: WNV; assay: microbe, parasite or virus in culture; assay type: cell-based, West Nile virus; conditions: West Nile virus, read-out: WNV
[5] = Safety in the chimpanzee model of chronic HCV infection; assay type: in vivo; conditions: 10 or 20 mg/kg/day dihydrochloride PO, 7 days
Excerpt: Chimpanzees were monitored by trained veterinarians throughout the study for weight loss, temperature, appetite, and general well being, as well as for blood chemistry profile and CBCs. […] The drug appeared to be well tolerated by all four treated animals. […] A single animal experienced an alanine aminotransferase (ALT) flare in the pretreatment period prior to the start of dosing, but the ALT levels diminished during treatment. Thus, this isolated ALT event was not attributable to drug.

[6] = in vitro; conditions: human
[7] = test system: HCV; assay: Clinical antiviral activity, serum HCV RNA (Amplicor HCV Monitor), val-mCyd daily for 15 days
[8] = Stability in human plasma

## CC(C)C(N)C(=O)OC1[C@@H](CO)O[C@@H](n2ccc(N)nc2=O)[C@@]1(C)O (some centres unmarked) [val-mCyd, 2-Amino-3-methyl-butyric acid 5-(4-amino-2-oxo-2H-pyrimidine-1-yl)-4-hydroxy-2 hydroxy-methyl-4-methyl-tetrahydro-furan-3-yl ester]
[1]
  EC50: > 100 µM
[2]
  EC50: 14 µM
[3]; 8.3 mg/kg/day dose group, end of treatment (day 7)
  mean reduction from baseline HCV viral load: 0.83 log10
[3]; 8.3 mpk, animal 500, site 1, Day 2
  Change in baseline Log10 HCV RNA viral load: −1.156 log10
[3]; 8.3 mpk, animal 500, site 1, Day 5
  Change in baseline Log10 HCV RNA viral load: −0.4038 log10
[3]; 8.3 mpk, animal 500, site 1, Day 7
  Change in baseline Log10 HCV RNA viral load: −0.8051 log10
[3]; 8.3 mpk, animal 500, site 2, Day 2
  Change in baseline Log10 HCV RNA viral load: −1.079 log10
[3]; 8.3 mpk, animal 500, site 2, Day 5
  Change in baseline Log10 HCV RNA viral load: −0.5503 log10
[3]; 8.3 mpk, animal 500, site 2, Day 7
  Change in baseline Log10 HCV RNA viral load: −1.063 log10
[3]; 8.3 mpk, animal 501, site 1, Day 2
  Change in baseline Log10 HCV RNA viral load: −0.2518 log10
[3]; 8.3 mpk, animal 501, site 1, Day 5
  Change in baseline Log10 HCV RNA viral load: −0.3618 log10
[3]; 8.3 mpk, animal 501, site 1, Day 7
  Change in baseline Log10 HCV RNA viral load: −0.4361 log10
[3]; 8.3 mpk, animal 501, site 2, Day 2
  Change in baseline Log10 HCV RNA viral load: −0.452 log10
[3]; 8.3 mpk, animal 501, site 2, Day 5
  Change in baseline Log10 HCV RNA viral load: −0.7125 log10
[3]; 8.3 mpk, animal 501, site 2, Day 7
  Change in baseline Log10 HCV RNA viral load: −0.9003 log10
[3]; 16.6 mpk, animal 497, site 1, Day 2
  Change in baseline Log10 HCV RNA viral load: −0.7215 log10
[3]; 16.6 mpk, animal 497, site 1, Day 5
  Change in baseline Log10 HCV RNA viral load: −0.907 log10
[3]; 16.6 mpk, animal 497, site 1, Day 7
  Change in baseline Log10 HCV RNA viral load: −1.277 log10
[3]; 16.6 mpk, animal 497, site 2, Day 2
  Change in baseline Log10 HCV RNA viral load: −0.8556 log10
[3]; 16.6 mpk, animal 497, site 2, Day 5
  Change in baseline Log10 HCV RNA viral load: −1.02 log10
[3]; 16.6 mpk, animal 497, site 2, Day 7
  Change in baseline Log10 HCV RNA viral load: −1.514 log10
[3]; 16.6 mpk, animal 498, site 1, Day 2
  Change in baseline Log10 HCV RNA viral load: −0.2947 log10
[3]; 16.6 mpk, animal 498, site 1, Day 5
  Change in baseline Log10 HCV RNA viral load: −0.2814 log10
[3]; 16.6 mpk, animal 498, site 1, Day 7
  Change in baseline Log10 HCV RNA viral load: −0.603 log10
[3]; 16.6 mpk, animal 498, site 2, Day 2
  Change in baseline Log10 HCV RNA viral load: −0.6585 log10
[3]; 16.6 mpk, animal 498, site 2, Day 5
  Change in baseline Log10 HCV RNA viral load: −0.5597 log10
[3]; 16.6 mpk, animal 498, site 2, Day 7
  Change in baseline Log10 HCV RNA viral load: −0.6914 log10
[3]; animal 497, site 2, day 7, pretreatment 535,000
  HCV viral load: 16,500 genomes per ml
[4]
  EC50: 82 µM
[5]
  adverse events, tolerability: No adverse events due to drug were noted
[6]
  CC50: 24 µM
[7]; 50 mg, Day 1 (baseline)
  HCV RNA in Log10 scale, mean: 6.72 log10
  HCV RNA in Log10 scale, median: 6.69 log10
[7]; 50 mg, Day 2
  Change from baseline (Day 1) in Log10 HCV RNA, mean: −0.13 log10
  Change from baseline (Day 1) in Log10 HCV RNA, median: −0.07 log10
  HCV RNA in Log10 scale, mean: 6.60 log10
  HCV RNA in Log10 scale, median: 6.58 log10
[7]; 50 mg, Day 4
  Change from baseline (Day 1) in Log10 HCV RNA, mean: −0.16 log10
  Change from baseline (Day 1) in Log10 HCV RNA, median: −0.13 log10
  HCV RNA in Log10 scale, mean: 6.56 log10
  HCV RNA in Log10 scale, median: 6.55 log10
[7]; 50 mg, Day 8
  Change from baseline (Day 1) in Log10 HCV RNA, mean: −0.11 log10
  Change from baseline (Day 1) in Log10 HCV RNA, median: −0.06 log10
  HCV RNA in Log10 scale, mean: 6.62 log10
  HCV RNA in Log10 scale, median: 6.56 log10
[7]; 50 mg, Day 11
  Change from baseline (Day 1) in Log10 HCV RNA, mean: −0.26 log10
  Change from baseline (Day 1) in Log10 HCV RNA, median: −0.26 log10
  HCV RNA in Log10 scale, mean: 6.47 log10
  HCV RNA in Log10 scale, median: 6.46 log10
[7]; 50 mg, Day 15
  Change from baseline (Day 1) in Log10 HCV RNA, mean: −0.15 log10
  Change from baseline (Day 1) in Log10 HCV RNA, median: −0.10 log10
  HCV RNA in Log10 scale, mean: 6.57 log10
  HCV RNA in Log10 scale, median: 6.57 log10
[7]; 50 mg, Day 16
  Change from baseline (Day 1) in Log10 HCV RNA, mean: −0.15 log10
  Change from baseline (Day 1) in Log10 HCV RNA, median: −0.13 log10
  HCV RNA in Log10 scale, mean: 6.57 log10
  HCV RNA in Log10 scale, median: 6.45 log10
[7]; 50 mg, Day 17
  Change from baseline (Day 1) in Log10 HCV RNA, mean: −0.18 log10
  Change from baseline (Day 1) in Log10 HCV RNA, median: −0.21 log10
  HCV RNA in Log10 scale, mean: 6.54 log10
  HCV RNA in Log10 scale, median: 6.54 log10
[7]; 50 mg, Day 22
  Change from baseline (Day 1) in Log10 HCV RNA, mean: −0.09 log10
  Change from baseline (Day 1) in Log10 HCV RNA, median: −0.09 log10
  HCV RNA in Log10 scale, mean: 6.64 log10
  HCV RNA in Log10 scale, median: 6.73 log10
[7]; 50 mg, Day 29
  Change from baseline (Day 1) in Log10 HCV RNA, mean: −0.01 log10
  Change from baseline (Day 1) in Log10 HCV RNA, median: −0.04 log10
  HCV RNA in Log10 scale, mean: 6.71 log10
  HCV RNA in Log10 scale, median: 6.67 log10
[7]; 50 mg, Day −1 (pre-treatment)
  HCV RNA in Log10 scale, mean: 6.72 log10
  HCV RNA in Log10 scale, median: 6.81 log10
[7]; 100 mg, Day 1 (baseline)
  HCV RNA in Log10 scale, mean: 6.68 log10
  HCV RNA in Log10 scale, median: 6.93 log10
[7]; 100 mg, Day 2
  Change from baseline (Day 1) in Log10 HCV RNA, mean: −0.16 log10
  Change from baseline (Day 1) in Log10 HCV RNA, median: −0.12 log10
  HCV RNA in Log10 scale, mean: 6.52 log10
  HCV RNA in Log10 scale, median: 6.80 log10
[7]; 100 mg, Day 4
  Change from baseline (Day 1) in Log10 HCV RNA, mean: −0.25 log10
  Change from baseline (Day 1) in Log10 HCV RNA, median: −0.24 log10
  HCV RNA in Log10 scale, mean: 6.43 log10
  HCV RNA in Log10 scale, median: 6.46 log10
[7]; 100 mg, Day 8
  Change from baseline (Day 1) in Log10 HCV RNA, mean: −0.21 log10
  Change from baseline (Day 1) in Log10 HCV RNA, median: −0.20 log10
  HCV RNA in Log10 scale, mean: 6.42 log10
  HCV RNA in Log10 scale, median: 6.59 log10
[7]; 100 mg, Day 11
  Change from baseline (Day 1) in Log10 HCV RNA, mean: −0.32 log10
  Change from baseline (Day 1) in Log10 HCV RNA, median: −0.28 log10
  HCV RNA in Log10 scale, mean: 6.36 log10
  HCV RNA in Log10 scale, median: 6.56 log10
[7]; 100 mg, Day 15
  Change from baseline (Day 1) in Log10 HCV RNA, mean: −0.38 log10
  Change from baseline (Day 1) in Log10 HCV RNA, median: −0.43 log10
  HCV RNA in Log10 scale, mean: 6.30 log10
  HCV RNA in Log10 scale, median: 6.41 log10
[7]; 100 mg, Day 16
  Change from baseline (Day 1) in Log10 HCV RNA, mean: −0.39 log10
  Change from baseline (Day 1) in Log10 HCV RNA, median: −0.49 log10
  HCV RNA in Log10 scale, mean: 6.23 log10
  HCV RNA in Log10 scale, median: 6.40 log10
[7]; 100 mg, Day 17
  Change from baseline (Day 1) in Log10 HCV RNA, mean: −0.18 log10
  Change from baseline (Day 1) in Log10 HCV RNA, median: −0.24 log10
  HCV RNA in Log10 scale, mean: 6.65 log10
  HCV RNA in Log10 scale, median: 6.72 log10
[7]; 100 mg, Day 22
  Change from baseline (Day 1) in Log10 HCV RNA, mean: −0.15 log10
  Change from baseline (Day 1) in Log10 HCV RNA, median: −0.19 log10
  HCV RNA in Log10 scale, mean: 6.53 log10
  HCV RNA in Log10 scale, median: 6.66 log10
[7]; 100 mg, Day 29
  Change from baseline (Day 1) in Log10 HCV RNA, mean: 0.13 log10
  Change from baseline (Day 1) in Log10 HCV RNA, median: −0.12 log10
  HCV RNA in Log10 scale, mean: 6.67 log10
  HCV RNA in Log10 scale, median: 6.71 log10
[7]; 100 mg, Day −1 (pre-treatment)
  HCV RNA in Log10 scale, mean: 6.60 log10
  HCV RNA in Log10 scale, median: 6.75 log10
[8]; 37° C., after 10 hours
  input val-mCyd remaining: 2%
[8]; human, plasma
  half-life: 1.81 h
